# Laboratory results: publication PMC10851555, “Safinamide, an inhibitor of monoamine oxidase, modulates the magnitude, gating, and hysteresis of sodium ion current” (BMC Pharmacology & Toxicology, 2024)
# Key:
# [1] = system: voltage-gated sodium ion (NaV) channels in pituitary GH3 cells; experiment: Window INa [INa(W)] induced by ascending ramp voltage (−100 to +40 mV over 200 ms) in GH3 cells; type: cell-based, rat; details: for ∆G0 for gating of INa(W) activation at 0 mV: control 6.78 ± 1.1, ∆G0 = q × F × V1/2, n = 7
# Source text: The sigmoidal relationship between Vramp-induced INa(W) and the upsloping Vramp (nonlinear current–voltage relationship) was investigated and fitted with the Boltzmann function as follows: [drawing 2]
# where V is the membrane potential in millivolts, Erev is the reversal potential of INa, G is the INa conductance in nanosiemens, I is the current, Vh is the voltage at which half-maximal activation or inactivation of the current occurs, q is the apparent gating charge, F is Faraday’s constant, R is the universal gas constant, and T is the absolute temperature.
# The free energy ∆G0 for the gating of INa(W) was determined by assuming a two-state gating model [equilibrium between closed (resting) and open states] of the NaV channel. The ∆G0 for the activation of INa(W) at 0 mV could be calculated as follows: q × F × V1/2 [45, 46]. The standard errors in ∆G0 ( [drawing 3] ) could be calculated as follows: […]
# In the present study, we investigated whether the addition of SAF to GH3 cells modulates the magnitude of INa(W) induced by ascending Vramp. Test cells were maintained at −80 mV and subjected to Vramp ascending from −100 to +40 mV over 200 ms (i.e., ramp speed of 0.7 mV/ms) to induce INa(W). […] The ∆area values of INa(W) in the absence and presence of SAF and SAF plus Ran were calculated (Fig. 7B).
# Fig. 7 Stimulatory effects of SAF on window INa [INa(W)] induced by an ascending ramp voltage Vramp in GH3 cells. For the experiments, the test cells were maintained at −80 mV and subjected to Vramp ranging from −100 to +40 mV over 200 ms (ramp speed of 0.7 mV/ms). (A) INa(W) trace in the absence (a, blue) and presence (b, red) of 10 μM SAF. The inset indicates the Vramp protocol, and the downward deflection indicates inward-directed current. The continuous gray lines corresponding to the untreated or SAF-treated (10 μM) cells were fitted (least-squares minimization) with the Boltzmann equation. The values of […] and q (apparent gating charge) induced by ascending Vramp over 200 ms in the absence (blue) of SAF were, respectively, −34 mV and 2.1 e; the corresponding values in the presence (red) of 10 μM SAF were −38 mV and 2.8 e, respectively. (B) Summary graph illustrating the effects of SAF (3 and 10 μM) and SAF (10 μM) plus Ran (10 μM) on the Δarea of INa(W) in GH3 cells (mean ± standard error of the mean; n = 7 for each point). The value of Δarea was measured at a voltage ranging from −80 and +40 mV, which corresponded to INa(W) induced by the ascending Vramp. […] (C) Summary graph illustrating the effects of SAF (3 and 10 μM) and SAF plus Ran (10 μM) on ΔG0 (mean ± standard error of the mean; n = 7 for each point). The estimation of ΔG0 for the induction of instantaneous INa(W) is described in the Materials and Methods section.
# [2] = system: voltage-gated sodium ion (NaV) channels in pituitary GH3 cells; experiment: Whole-cell INa(T) decay during a 1-s, 20-Hz train of depolarizing pulses in GH3 cells; type: cell-based, rat; details: control 65 ± 4 ms, n = 7
# Method: Shortly before experiments, GH3 was carefully suspended in normal Tyrode’s solution at room temperature (20–25 °C). A few drops of the suspension containing cell clumps were immediately added to a custom-built chamber on the stage of an inverted Diaphot-200 microscope (Nikon, Tokyo, Japan). Pipettes were pulled from Kimax-51 soft-glass capillaries (#34500-99; Kimble, Vineland, NJ) by using a Narishige PP-830 Vertical Puller (Tokyo, Japan), and their tips were fire-polished using a microforge (MF-83, Narishige). During the measurements, an electrode with a tip resistance of 2–4 MΩ, which was tightly inserted into a holder, was maneuvered using a WR-98 micromanipulator (Narishige). Patch-clamp experiments were performed in the voltage-clamp mode with either cell-attached or whole-cell configuration (rupturing of the membrane patch after GΩ formation) by using a RK-400 Patch-Clamp Amplifier (Bio-Logic, Claix, France) connected to a laptop. Shortly before GΩ formation, potential correction was performed for a liquid junction potential, which developed at the electrode’s tip because of the difference in the compositions of the internal and bath solutions.
# SAF is efficacious as an add-on therapy following subthalamic nucleus deep brain stimulation in patients with Parkinson’s disease. Therefore, we investigated whether SAF could modify the inactivation of currents induced by a train of depolarizing stimuli. The test cells were maintained at −80 mV and subjected to repetitive depolarization to −10 mV (40 ms per pulse; rate of 20 Hz; duration of 1 s). Similar to the findings of relevant studies, during the control period (the absence of SAF), INa(T) inactivation was noticed to be induced by 1 s of repetitive depolarization stimuli (−80 to −10 mV) with a decaying time constant of 65 ± 4 ms (n = 7; Fig. 6A, 6B and 6C). […] In the presence of 3 and 10 μM SAF, the exponential time course of INa(T) induced by the same train of depolarizing pulses was longer at 107 ± 5 ms (n = 7, P < 0.05) and 124 ± 6 ms (n = 7, P < 0.05), respectively. Furthermore, as MGB and ranolazine have been reported to suppress the amplitude of INa effectively, we added ranolazine (Ran; 10 μM) and mirogabalin (MGB; 10 μM) separately in the presence of 10 μM SAF. […] The application of Ran (10 μM) or MGB (10 μM) alone decreased the decaying time constant of INa(T) during the same train of depolarizing pulses to 39 ± 4 ms (n = 7, P < 0.05) or 42 ± 4 ms (n = 7, P < 0.05), respectively, from a control value of 66 ± 5 ms (n = 7). Thus, in addition to increasing the magnitude of INa(T), SAF prominently affects the decaying of INa(T) subjected to a 1-s train of depolarizing pulses.
# Fig. 6 Effect of SAF on INa(T) decay induced by a train of depolarizing pulses in GH3 cells. The train of pulses comprised twenty 40-ms pulses (voltage increased to −10 mV) with 10-ms intervals at −80 mV for a total duration of 1 s. (A) Current traces during the control period (a, blue) and during exposure to 10 μM SAF (b, red). The voltage-clamp protocol used is indicated atop the current traces. In panel A, the third graphs (blue and red) from the top are the expanded forms of the second graphs (brown dashed boxes). (B) The relative amplitude of INa(T) versus pulse train duration in the absence (blue open circles) and presence (red open squares) of 10 μM SAF (mean ± standard error of the mean; n = 7 for each point). The INa(T) amplitudes were normalized by dividing the current amplitudes at the end of each pulse-train stimulation by those obtained at the beginning of the pulse train stimulation. The gray continuous lines on which the data points are overlaid are reliably fitted with a single exponential.
compound,measurement,setting,value
"C[C@H](NCc1ccc(OCc2cccc(F)c2)cc1)C(N)=O [SAF, (S)-2-((4-((3-fluorobenzyl)oxy)benzyl)amino)propanamide]",∆G0 for gating of INa(W) activation at 0 mV,[1]; 3 μM SAF,2.11 ± 0.382 kcal/mol
same,q (apparent gating charge) of INa(W),"[1]; 10 μM SAF, absence of SAF 2.1 e",2.8 e
same,V1/2 (half-maximal activation voltage) of INa(W) induced by ascending Vramp (Boltzmann fit),"[1]; 10 μM SAF, absence of SAF −34 mV",−38 mV
same,∆G0 for gating of INa(W) activation at 0 mV,[1]; 10 μM SAF,2.476 ± 0.43 kcal/mol
same,amplitude and strength (∆area) of INa(W),[1]; within 1 min of SAF exposure,sharply increased
same,decaying time constant of INa(T) during train of depolarizing pulses,[2]; 3 μM SAF,107 ± 5 ms
same,decaying time constant of INa(T) during train of depolarizing pulses,[2]; 10 μM SAF,124 ± 6 ms
